We go through one compound from US6563002B2, “Biscyclopropanecarboxamide compounds and pharmaceutical use thereof” (Ajinomoto Co., Inc., priority 1999, dated 2003).

The test system of this assay is NF-kappa B. The assay is described as follows: Evaluation of inhibition of NF-kappa B: β-gal reporter in immortalized HUVEC induced with IL-1β. The format is cell-based. The settings on record: Homo sapiens; HUVEC with NF-kappa B-driven β-gal reporter; 1 ng/ml IL-1β added 30 minutes after compound; β-gal activity determined 16 hours after; read-out: NFkB inhibiting activity IC50. An excerpt:
Evaluation of Inhibition of NF-Kappa B:
Cells used in the tests were obtained by stably introducing E. coli β-galactosidase (β-gal) genes into human normal umbilical vein endothelial cells (HUVEC) immortalized with SV 40 large T antigen. The genes were those driven by SV40 minimum promoter fused with 6 times of the NF-kappa B binding motif derived, from immunoglobulin kappa light-chain enhancer. The cells were subcultured in RPMI medium containing 10% of FBS, and spread on 96-well plates in a concentration of 1×10^4/well the day before the initiation of the experiments. The compound of the present invention was dissolved in DMSO in a suitable concentration and fed into the 96-well plates so that the final concentration of DMSO would be not higher than 1%. 30 minutes after the addition of the compound, NF-kappa B activity was induced with 1 ng/ml of IL-1β in each well. The β-gal activity was determined 16 hours after. The β-gal activity was determined with a chemical photogenic substrate (Galacton-Light-Plus: Boehringer Mannheim) according to the protocol attached to the reagent.

Converted amounts (≈) assume the structure as drawn.

What is called IC50 is the concentration needed to halve the response being measured. As to `CC1(C)CC1C(=O)Nc1ccc(C(O)c2ccccc2)cc1NC(=O)C1CC1(C)C` (stereo not shown) [Example 2], the IC50 worked out at 1 µg/mL (≈ 2.46 µM).
